Test results: patent US20130302442A1, “METHODS OF USING (4S,4AS,5AR,12AS)-4-DIMETHYLAMINO-3,10,12,12A-TETRAHYDROXY-7-[(METHOXY(METHYL)AMINO)-METHYL]-1,11-DIOXO-1,4,4A,5,5A,6,11,12A-OCTAHYDRO-NAPHTHACENE-2-CARBOXYLIC ACID AMIDE” (priority 2012, published 2013)
In brackets after ≈: the same amount, converted by molar mass. Like-named read-outs stand apart in the source and are kept apart here.

Columns and labels:
[1] = tested on: Streptococcus spp. [Group C]; assay: In vitro MIC testing, antibacterial spectrum of activity; assay type: cell-based
[2] = tested on: S. pyogenes; assay: as above; assay type: cell-based
[3] = tested on: E. faecalis; assay: as above; assay type: cell-based; conditions: for MIC50 / MIC90: Enterococcus faecalis
[4] = tested on: E. faecium; assay: as above; assay type: cell-based; conditions: for MIC50 / MIC90: Enterococcus faecium
[5] = tested on: S. aureus; assay: as above; assay type: cell-based, Staphylococcus aureus; conditions: for MIC50 / MIC90: Staphylococcus aureus
[6] = tested on: S. agalactiae; assay: as above; assay type: cell-based
[7] = tested on: S. haemolyticus; assay: as above; assay type: cell-based; conditions: for MIC50 / MIC90: Staphylococcus haemolyticus
[8] = tested on: S. pneumoniae; assay: as above; assay type: cell-based, Streptococcus pneumoniae
[9] = tested on: P. acnes; assay: as above; assay type: cell-based, Propionibacterium acnes
[10] = tested on: S. epidermidis; assay: as above; assay type: cell-based, Staphylococcus epidermidis; conditions: for MIC50 / MIC90: Staphylococcus epidermidis
[11] = tested on: methicillin-sensitive S. aureus (MSSA); assay: In vitro MIC against isolates of MSSA; assay type: cell-based, Staphylococcus aureus; conditions: for MIC Range / MIC50 / MIC90: MSSA (34 isolates); for MIC50 / MIC90: Staphylococcus aureus; for MIC90: read-out: MIC90
[12] = tested on: hospital-associated methicillin-resistant S. aureus (MRSA-HA); assay: In vitro MIC against isolates of MRSA-HA; assay type: cell-based, Staphylococcus aureus; conditions: for MIC50 / MIC90: Staphylococcus aureus
[13] = tested on: community-acquired methicillin-resistant S. aureus (MRSA-CA); assay: In vitro MIC against isolates of MRSA-CA; assay type: cell-based, Staphylococcus aureus; conditions: for MIC50 / MIC90: Staphylococcus aureus
[14] = MRSA, S. aureus [MRSA] (31 isolates), read-out: MIC50
[15] = MRSA, S. aureus [MRSA] (31 isolates), read-out: MIC90
[16] = MSSA, S. aureus [MSSA] (32 isolates), read-out: MIC50
[17] = MSSA, S. aureus [MSSA] (32 isolates), read-out: MIC90
[18] = S. haemolyticus (33 isolates), read-out: MIC50
[19] = S. haemolyticus (33 isolates), read-out: MIC90
[20] = S. epidermidis [MRSE] (32 isolates), read-out: MIC50
[21] = S. epidermidis [MRSE] (32 isolates), read-out: MIC90
[22] = S. epidermidis [MSSE] (31 isolates), read-out: MIC50
[23] = S. epidermidis [MSSE] (31 isolates), read-out: MIC90
[24] = S. epidermidis [MSSE] (31 isolates)
[25] = Streptococcus spp. [Group C] (30 isolates)
[26] = S. pneumoniae [PSSP] (32 isolates)

CC[C@H]1OC(=O)[C@H](C)[C@@H](O[C@H]2C[C@@](C)(OC)[C@@H](O)[C@H](C)O2)[C@H](C)[C@@H](O[C@@H]2O[C@H](C)C[C@H](N(C)C)[C@H]2O)[C@](C)(O)C[C@@H](C)C(=O)[C@H](C)[C@@H](O)[C@]1(C)O [Erythromycin]
MIC50 ([1]; Streptococcus spp. [Group C] (30 isolates), read-out: MIC50): 0.06 µg/mL (≈ 0.0818 µM)
MIC90 ([1]; Streptococcus spp. [Group C] (30 isolates), read-out: MIC90): 4 µg/mL (≈ 5.45 µM)
MIC50 ([2]; Streptococcus pyogenes): 0.06 µg/mL (≈ 0.0818 µM)
MIC90 ([2]; Streptococcus pyogenes): 0.06 µg/mL (≈ 0.0818 µM)
MIC50 [3]: > 32 µg/mL
MIC90 [3]: > 32 µg/mL
MIC50 [4]: > 32 µg/mL
MIC90 [4]: > 32 µg/mL
MIC50 ([4]; VRE): > 32 µg/mL
MIC90 ([4]; VRE): > 32 µg/mL
MIC50 [5, 14]: > 32 µg/mL
MIC90 [5, 15]: > 32 µg/mL
MIC50 [5, 16]: 0.5 µg/mL (≈ 0.681 µM)
MIC90 [5, 17]: > 32 µg/mL
MIC50 ([6]; Streptococcus agalactiae): 0.06 µg/mL (≈ 0.0818 µM)
MIC90 ([6]; Streptococcus agalactiae): > 16 µg/mL
MIC50 [7, 18]: > 32 µg/mL
MIC90 [7, 19]: > 32 µg/mL
MIC50 ([8]; Streptococcus pneumoniae, S. pneumoniae [PSSP] (32 isolates), read-out: MIC50): 0.03 µg/mL (≈ 0.0409 µM)
MIC90 ([8]; Streptococcus pneumoniae, S. pneumoniae [PSSP] (32 isolates), read-out: MIC90): 2 µg/mL (≈ 2.73 µM)
MIC50 ([9]; Cutibacterium acnes, read-out: MIC50): ≤ 0.06 µg/mL
MIC90 ([9]; Cutibacterium acnes, read-out: MIC90): > 128 µg/mL
MIC50 [10, 20]: > 32 µg/mL
MIC90 [10, 21]: > 32 µg/mL
MIC50 [10, 22]: 0.25 µg/mL (≈ 0.341 µM)
MIC90 [10, 23]: > 32 µg/mL

CC(=O)NC[C@H]1CN(c2ccc(N3CCOCC3)c(F)c2)C(=O)O1 [Linezolid]
MIC Range [11]: 2 to 4 µg/mL
MIC50 [11]: 2 µg/mL (≈ 5.93 µM)
MIC90 [11]: 4 µg/mL (≈ 11.9 µM)
susceptibility of the test organisms ([11]; all MSSA test organisms): susceptible
MIC Range ([12]; MRSA-HA (33 isolates)): 2 to 4 µg/mL
MIC50 ([12]; MRSA-HA (33 isolates)): 2 µg/mL (≈ 5.93 µM)
MIC90 ([12]; MRSA-HA (33 isolates)): 2 µg/mL (≈ 5.93 µM)
susceptibility of the test organisms ([12]; all MRSA-HA organisms): susceptible
MIC Range ([13]; MRSA-CA (33 isolates)): 2 to 4 µg/mL
MIC50 ([13]; MRSA-CA (33 isolates)): 2 µg/mL (≈ 5.93 µM)
MIC90 ([13]; MRSA-CA (33 isolates)): 4 µg/mL (≈ 11.9 µM)
susceptibility of the test organisms ([13]; all MRSA-CA test organisms): susceptible

Cc1onc(-c2ccccc2)c1C(=O)N[C@@H]1C(=O)N2[C@@H]1SC(C)(C)[C@@H]2C(=O)O [Oxacillin]
MIC Range [11]: 0.25 to 2 µg/mL
MIC50 [11]: 0.25 µg/mL (≈ 0.623 µM)
MIC90 [11]: 0.5 µg/mL (≈ 1.25 µM)
MIC Range ([5]; S. aureus [MSSA] (32 isolates)): 0.12 to 1 µg/mL
MIC50 [5, 14]: > 32 µg/mL
MIC90 [5, 15]: > 32 µg/mL
MIC50 [5, 16]: 0.5 µg/mL (≈ 1.25 µM)
MIC90 [5, 17]: 1 µg/mL (≈ 2.49 µM)
MIC50 ([12]; MRSA-HA (33 isolates)): 32 µg/mL (≈ 79.7 µM)
MIC90 ([12]; MRSA-HA (33 isolates)): > 32 µg/mL
MIC50 [7, 18]: 0.25 µg/mL (≈ 0.623 µM)
MIC90 [7, 19]: > 32 µg/mL
MIC50 ([13]; MRSA-CA (33 isolates)): 32 µg/mL (≈ 79.7 µM)
MIC90 ([13]; MRSA-CA (33 isolates)): > 32 µg/mL
MIC Range [10, 24]: 0.06 to 0.25 µg/mL
MIC50 [10, 20]: 32 µg/mL (≈ 79.7 µM)
MIC90 [10, 21]: > 32 µg/mL
MIC50 [10, 22]: 0.12 µg/mL (≈ 0.299 µM)
MIC90 [10, 23]: 0.25 µg/mL (≈ 0.623 µM)

CN[C@H](CC(C)C)C(=O)N[C@H]1C(=O)N[C@@H](CC(N)=O)C(=O)N[C@H]2C(=O)N[C@H]3C(=O)N[C@H](C(=O)N[C@H](C(=O)O)c4cc(O)cc(O)c4-c4cc3ccc4O)[C@H](O)c3ccc(c(Cl)c3)Oc3cc2cc(c3O[C@@H]2O[C@H](CO)[C@@H](O)[C@H](O)[C@H]2O[C@H]2C[C@](C)(N)[C@H](O)[C@H](C)O2)Oc2ccc(cc2Cl)[C@H]1O [Vancomycin]
MIC50 ([1]; Streptococcus): 0.25 µg/mL (≈ 0.173 µM)
MIC90 ([1]; Streptococcus): 0.5 µg/mL (≈ 0.345 µM)
MIC Range [1, 25]: 0.25 to 1 µg/mL
MIC Range ([2]; S. pyogenes (32 isolates)): 0.25 to 0.5 µg/mL
MIC50 ([2]; Streptococcus pyogenes): 0.25 µg/mL (≈ 0.173 µM)
MIC90 ([2]; Streptococcus pyogenes): 0.25 µg/mL (≈ 0.173 µM)
MIC Range ([3]; E. faecalis [VSE] (31 isolates)): 0.5 to 4 µg/mL
MIC50 [3]: 1 µg/mL (≈ 0.69 µM)
MIC90 [3]: 2 µg/mL (≈ 1.38 µM)
MIC Range ([4]; E. faecium [VRE] (30 isolates)): >64 µg/mL
MIC Range ([4]; E. faecium [VSE] (32 isolates)): 0.25 to 2 µg/mL
MIC50 [4]: 1 µg/mL (≈ 0.69 µM)
MIC90 [4]: 1 µg/mL (≈ 0.69 µM)
MIC50 ([4]; VRE): > 64 µg/mL
MIC90 ([4]; VRE): > 64 µg/mL
MIC Range ([5]; S. aureus [MRSA] (31 isolates)): 0.5 to 2 µg/mL
MIC Range ([5]; S. aureus [MSSA] (32 isolates)): 0.5 to 1 µg/mL
MIC50 ([5]; MRSA): 1 µg/mL (≈ 0.69 µM)
MIC90 ([5]; MRSA): 1 µg/mL (≈ 0.69 µM)
MIC50 ([5]; MSSA): 1 µg/mL (≈ 0.69 µM)
MIC90 ([5]; MSSA): 1 µg/mL (≈ 0.69 µM)
MIC Range ([6]; S. agalactiae (31 isolates)): 0.25 to 2 µg/mL
MIC50 ([6]; Streptococcus agalactiae): 0.5 µg/mL (≈ 0.345 µM)
MIC90 ([6]; Streptococcus agalactiae): 0.5 µg/mL (≈ 0.345 µM)
MIC Range ([7]; S. haemolyticus (33 isolates)): 0.5 to 2 µg/mL
MIC50 [7]: 1 µg/mL (≈ 0.69 µM)
MIC90 [7]: 1 µg/mL (≈ 0.69 µM)
MIC Range [8, 26]: 0.06 to 0.25 µg/mL
MIC50 ([8]; Streptococcus pneumoniae): 0.25 µg/mL (≈ 0.173 µM)
MIC90 ([8]; Streptococcus pneumoniae): 0.25 µg/mL (≈ 0.173 µM)
MIC Range [9]: 0.5-0.5 μg/mL
MIC Range ([10]; S. epidermidis [MRSE] (32 isolates)): 1 to 2 µg/mL
MIC Range [10, 24]: 1 to 2 µg/mL
MIC50 [10]: 2 µg/mL (≈ 1.38 µM)
MIC90 [10]: 2 µg/mL (≈ 1.38 µM)
MIC50 ([10]; MRSE): 2 µg/mL (≈ 1.38 µM)
MIC90 ([10]; MRSE): 2 µg/mL (≈ 1.38 µM)

Penicillin
MIC50 [1, 25]: ≦0.015 μg/mL
MIC90 [1, 25]: ≦0.015 μg/mL
MIC Range [1, 25]: ≦0.015-0.03 μg/mL
MIC50 ([2]; S. pyogenes (32 isolates)): ≦0.015 μg/mL
MIC90 ([2]; S. pyogenes (32 isolates)): ≦0.015 μg/mL
MIC Range ([2]; S. pyogenes (32 isolates)): ≦0.015-0.25 μg/mL
MIC50 ([6]; S. agalactiae (31 isolates)): 0.03 µg/mL
MIC90 ([6]; S. agalactiae (31 isolates)): 1 µg/mL
MIC Range ([6]; S. agalactiae (31 isolates)): ≦0.015-2 μg/mL
MIC50 [8, 26]: ≦0.015 μg/mL
MIC90 [8, 26]: 0.06 µg/mL
MIC Range [8, 26]: ≦0.015-0.12 μg/mL
MIC Range [9]: 0.03 to 0.5 µg/mL
